According to EP0677522A1, “8-METHOXYQUINOLONECARBOXYLIC ACID DERIVATIVE” (priority 1992, dated 1994):
≈ marks a conversion by molar mass, not a printed value.

Legend:
[1] = system: S. aureus MRSA Y-238; assay: MIC of the infectious bacteria used for experimental infection; type: cell-based; conditions: Staphylococcus aureus, infectious strain of the mouse protection test
Protocol: (§1) The in vitro antibacterial activity (minimum inhibitory concentration, MIC, µg/ml) of the test compounds was determined according to Japan Society of Chemotherapy Standard [Chemotherapy, vol. 29, pp 76-79 (1981)].
(§2) Experimental infection was caused by intraperitoneal inoculation of respective bacteria to male mice. One hour after the inoculation, a test compound was orally administered to the mice. The therapeutic effect of each test compound was evaluated by reference to the 50% effective dose (ED₅₀) which was based on the survival ratio at 7 days after the administration according to the probit method [Proc. Soc. Exp. Med., Vol. 57, p 261-264 (1944)]. The minimum inhibitory concentration (MIC) of the infectious bacteria used was also determined. […]

[2] = system: S. aureus Smith; assay: as above; type: cell-based; conditions: Staphylococcus aureus; infectious strain of the mouse protection test
Protocol: as §1, §2

[3] = system: E. coli KC-14; assay: as above; type: cell-based; conditions: Escherichia coli, KC14; infectious strain of the mouse protection test
Protocol: as §1, §2

[4] = system: S. aureus MRSA Y-238; assay: Protection of mice from experimental infection; type: in vivo; conditions: Table 3-2: male mice; intraperitoneal inoculation 7.5×10⁵ cells/mouse (185×LD₅₀); oral administration one hour after inoculation; survival ratio at 7 days
Protocol: as §2

[5] = system: S. aureus Smith; assay: Protection of mice from experimental infection; type: in vivo; conditions: male mice; intraperitoneal inoculation 2.8×10⁶ cells/mouse (123×LD₅₀); oral administration one hour after inoculation; survival ratio at 7 days, probit method
Protocol: as §2

[6] = system: E. coli KC-14; assay: Protection of mice from experimental infection; type: in vivo; conditions: Table 3-2: male mice; intraperitoneal inoculation (744×LD₅₀); oral administration one hour after inoculation; survival ratio at 7 days
Protocol: as §2

[7] = system: B. fragilis BFY-18; assay: Antibacterial effect against specific bacteria (MIC); type: cell-based; conditions: Bacteroides fragilis, BFY18; same manner as Experimental Example 1
Protocol: as §1
(§3) In the same manner as in Experimental Example 1, the antibacterial effect against specific bacteria such as Chlamydia, Mycoplasma and acid-fast bacteria and anaerobic bacteria was determined.

[8] = system: Chlamydia trachomatis D/UW-3Cx; assay: as above; type: cell-based; conditions: same manner as Experimental Example 1
Protocol: as §1, §3

[9] = system: Mycoplasma pneumoniae ATCC 29343; assay: as above; type: cell-based; conditions: ATCC29343, same manner as Experimental Example 1
Protocol: as §1, §3

[10] = system: Ureaplasma urealyticum ATCC 27618; assay: as above; type: cell-based; conditions: ATCC27618, same manner as Experimental Example 1
Protocol: as §1, §3

[11] = system: Mycobacterium smegmatis IFO 3153; assay: as above; type: cell-based; conditions: Mycolicibacterium smegmatis, IFO3153; same manner as Experimental Example 1
Protocol: as §1, §3

[12] = system: Staphylococcus aureus FDA 209P; assay: In vitro antibacterial activity (MIC), Japan Society of Chemotherapy Standard; type: cell-based; conditions: FDA209P, inoculated cells 10⁶ cells/ml
Protocol: as §1
(§4) Inoculated cells were 10⁶ cells/ml and the strain with * was incubated in a medium supplemented with 10% horse blood. The mark "1)" means quinolone resistant MRSA and "2)" means quinolone resistant bacteria.

[13] = system: Escherichia coli NIHJ JC-2; assay: as above; type: cell-based; conditions: NIHJJC2, inoculated cells 10⁶ cells/ml
Protocol: as §1, §4

[14] = system: Proteus vulgaris IFO 3988; assay: as above; type: cell-based; conditions: IFO3988, inoculated cells 10⁶ cells/ml
Protocol: as §1, §4

[15] = system: E. faecium EFMY-207; assay: as above; type: cell-based; conditions: Enterococcus faecium, EFMY207; quinolone resistant bacteria; inoculated cells 10⁶ cells/ml
Protocol: as §1, §4

[16] = system: E. faecium EFMY-28; assay: as above; type: cell-based; conditions: Enterococcus faecium, EFMY28; inoculated cells 10⁶ cells/ml
Protocol: as §1, §4

[17] = system: Klebsiella pneumoniae DT; assay: as above; type: cell-based; conditions: inoculated cells 10⁶ cells/ml
Protocol: as §1, §4

[18] = system: S. pneumoniae Type-III; assay: as above; type: cell-based; conditions: Streptococcus pneumoniae; inoculated cells 10⁶ cells/ml; medium supplemented with 10% horse blood
Protocol: as §1, §4

[19] = system: Enterobacter cloacae IFO 12937; assay: as above; type: cell-based; conditions: IFO12937, inoculated cells 10⁶ cells/ml
Protocol: as §1, §4

[20] = system: S. epidermidis SEY-223; assay: as above; type: cell-based; conditions: Staphylococcus epidermidis, SEY223; quinolone resistant bacteria; inoculated cells 10⁶ cells/ml
Protocol: as §1, §4

[21] = system: E. faecalis EFY-204; assay: as above; type: cell-based; conditions: Enterococcus faecalis, EFY204; quinolone resistant bacteria; inoculated cells 10⁶ cells/ml
Protocol: as §1, §4

[22] = system: Shigella flexneri EW-10; assay: as above; type: cell-based; conditions: EW10, inoculated cells 10⁶ cells/ml
Protocol: as §1, §4

[23] = system: Pseudomonas aeruginosa IFO 12582; assay: as above; type: cell-based; conditions: IFO12582, inoculated cells 10⁶ cells/ml
Protocol: as §1, §4

[24] = system: Citrobacter freundii IFO 12681; assay: as above; type: cell-based; conditions: IFO12681, inoculated cells 10⁶ cells/ml
Protocol: as §1, §4

[25] = system: Enterococcus faecalis LS-101; assay: as above; type: cell-based; conditions: LS101, inoculated cells 10⁶ cells/ml
Protocol: as §1, §4

[26] = system: E. avium EAY-30; assay: as above; type: cell-based; conditions: Enterococcus avium, EAY30, inoculated cells 10⁶ cells/ml
Protocol: as §1, §4

[27] = system: Corynebacterium diphtheriae Tronto; assay: as above; type: cell-based; conditions: inoculated cells 10⁶ cells/ml, medium supplemented with 10% horse blood
Protocol: as §1, §4

[28] = system: Serratia marcescens IFO 12648; assay: as above; type: cell-based; conditions: IFO12648, inoculated cells 10⁶ cells/ml
Protocol: as §1, §4

[29] = system: S. epidermidis ATCC 12228; assay: as above; type: cell-based; conditions: Staphylococcus epidermidis, ATCC12228; inoculated cells 10⁶ cells/ml
Protocol: as §1, §4

[30] = system: P. mirabilis IFO 3849; assay: as above; type: cell-based; conditions: Proteus mirabilis, IFO3849; inoculated cells 10⁶ cells/ml
Protocol: as §1, §4

[31] = system: S. viridans America; assay: as above; type: cell-based; conditions: Streptococcus viridans; inoculated cells 10⁶ cells/ml; medium supplemented with 10% horse blood
Protocol: as §1, §4

[32] = system: S. aureus No.88; assay: as above; type: cell-based; conditions: Staphylococcus aureus; quinolone resistant MRSA; inoculated cells 10⁶ cells/ml
Protocol: as §1, §4

[33] = system: Acinetobacter calcoaceticus ATCC 13006; assay: as above; type: cell-based; conditions: ATCC13006, inoculated cells 10⁶ cells/ml
Protocol: as §1, §4

[34] = system: Streptococcus pyogenes C-203; assay: as above; type: cell-based; conditions: C203, inoculated cells 10⁶ cells/ml, medium supplemented with 10% horse blood
Protocol: as §1, §4

**Q.** What does the source list for `COc1c(N2CC[C@@](CN)(CF)C2)c(F)cc2c(=O)c(C(=O)O)cn(C3CC3)c12` [Example 17, (S)-7-(3-aminomethyl-3-fluoromethylpyrrolidin-1-yl)-1-cyclopropyl-6-fluoro-1,4-dihydro-8-methoxy-4-oxo-3-quinolinecarboxylic acid]?
**A.** MIC [1]: 0.39 µg/mL; MIC [2]: ≤ 0.006 µg/mL; MIC [3]: 0.025 µg/mL; ED₅₀ (mg/mouse) (95% confidence limit) [4]: 1.540(1.103-2.151) mg/mouse; ED₅₀ (mg/mouse) (95% confidence limit) [5]: 0.031(0.021-0.044) mg/mouse; ED₅₀ (mg/mouse) (95% confidence limit) [6]: 0.011(0.008-0.015) mg/mouse; MIC [7]: 0.2 µg/mL (≈ 0.491 µM); MIC [8]: 0.025 µg/mL (≈ 0.0614 µM); MIC [9]: 0.1 µg/mL (≈ 0.245 µM); MIC [10]: 0.39 µg/mL (≈ 0.957 µM); MIC [11]: 0.1 µg/mL (≈ 0.245 µM); MIC [12]: 0.012 µg/mL (≈ 0.0295 µM); MIC [13]: 0.1 µg/mL (≈ 0.245 µM); MIC [14]: 0.78 µg/mL (≈ 1.91 µM); MIC [15]: 3.13 µg/mL (≈ 7.68 µM); MIC [16]: 0.39 µg/mL (≈ 0.957 µM); MIC [17]: 0.05 µg/mL (≈ 0.123 µM); MIC [18]: 0.05 µg/mL (≈ 0.123 µM); MIC [19]: 0.39 µg/mL (≈ 0.957 µM); MIC [20]: 0.78 µg/mL (≈ 1.91 µM); MIC [21]: 1.56 µg/mL (≈ 3.83 µM); MIC [22]: 0.025 µg/mL (≈ 0.0614 µM); MIC [23]: 1.56 µg/mL (≈ 3.83 µM); MIC [24]: 0.2 µg/mL (≈ 0.491 µM); MIC [25]: 0.025 µg/mL (≈ 0.0614 µM); MIC [26]: 0.2 µg/mL (≈ 0.491 µM); MIC [27]: 0.025 µg/mL (≈ 0.0614 µM); MIC [28]: 0.39 µg/mL (≈ 0.957 µM); MIC [29]: 0.025 µg/mL (≈ 0.0614 µM); MIC [30]: 0.78 µg/mL (≈ 1.91 µM); MIC [31]: 0.1 µg/mL (≈ 0.245 µM); MIC [32]: 0.78 µg/mL (≈ 1.91 µM); MIC [33]: 0.1 µg/mL (≈ 0.245 µM); MIC [34]: 0.1 µg/mL (≈ 0.245 µM)
